The values that follow are results of earlier work, collected in patent publication US20250018217A1, “PH[…] THERAPY APPARATUS AND METHODS FOR TREATING ORAL DISEASE” (Biolux Group SA, priority 2022, published 2025).

For data set [1] the following is noted: daily oral supplement of 2,000 IU to 6,000 IU in adults, within 3 months.

“Also recorded” adds a separate entry of the source. Like-named read-outs stand apart in the source and are kept apart here.

For `COc1cc(/C=C/C(=O)CC(=O)/C=C/c2ccc(O)c(OC)c2)ccc1O` [Curcumin], the “Antimicrobial activity (in solution)” value in the data set with microbial species (0.75 to 5 g/l, excitation wavelength 547 nm) is “[50]S. mutans; also recorded: [51]L. acidophilus”.

With `Cc1cc(=[N+](C)C)cc2sc3cc(N(C)C)cc(C)c3nc1-2.[Cl-]` [Dimethyl methylene blue], the “Antimicrobial activity (in solution)” value in the data set with microbial species (800 um, excitation wavelength 635-652) was “[12]A. baumannii”.

With `O=C1OC2(c3ccccc31)c1cc(I)c(O)c(I)c1Oc1c2cc(I)c(O)c1I` [Erythrosine], the “Antimicrobial activity (in solution)” value in the data set on microbial species (excitation wavelength 500-550 nm) is “[64]S. mutans”.

With `CN(C)c1ccc2nc3ccc(=[N+](C)C)cc-3sc2c1` [Methylene blue], the “Antimicrobial activity (in solution)” value in the data set on microbial species (25 ug/ml, excitation wavelength 632 nm) was “[8] Various”.

Turning to `CCNc1cc2[s+]c3cc(NCC)c(C)cc3nc2cc1C.[Cl-]` [New Methylene blue], the “Antimicrobial activity (in solution)” value in the data set on microbial species (00 uM, excitation wavelength 635-652) was “[17]A. baumannii”. For the compound `O=C([O-])c1c(Cl)c(Cl)c(Cl)c(Cl)c1-c1c2cc(I)c(=O)c(I)c-2oc2c(I)c([O-])c(I)cc12.[Na+].[Na+]` [Rose Bengal], the “Antimicrobial activity (in solution)” value in the data set with microbial species (10 um, excitation wavelength 532 nm) was “[26]E. faecalis”. Turning to `Cc1cc2nc3ccc(N(C)C)cc3[s+]c2cc1N.[Cl-]` [Toluidine blue O], the “Antimicrobial activity (in solution)” value in the data set on microbial species (100 mg/l, excitation wavelength 410 nm-660 nm) is “[21]E. coli”. For Phthalocynine, the “Antimicrobial activity (in solution)” value in the data set on microbial species (excitation wavelength 670 nm) was “[74]A. hidrophila”.

Sulfonic porphyrins (TPPS): the “Antimicrobial activity (in solution)” value with microbial species (no concentration or wavelength printed (TPPS)) is “[42]S. aureus”. For the compound vitamin D, the “Blood levels of vitamin D” value in data set [1] is 40 ng/mL.
